From patent publication US10953015B2, “Use of adenosine receptor signaling to regulate P-gp function” (CORNELL UNIVERSITY, priority 2016, dated 2021)

Experiments:
P-gp [1] = assay: Western blot of P-gp expression in primary mouse brain endothelial cells; assay type: cell-based; settings: 1 μM, up to 72 hours
Description: Mice were sacrificed and meninges of brain were removed and ground using a plunger and centrifuged at 3,000 g for 5 minutes. The obtained pellet was dissolved in 18% dextran and centrifuged at 10,000 g for 10 minutes and digested with DMEM containing collagenase, DNAse, and dispase at 37° C. for 75 minutes. The sample was centrifuged for 5 minutes at 3,200 g, and the pellet was washed with warm PBS. The pellet was resuspended in DMEM/F12 with puromycin, heparin, 20% PDS, and 1-glutamine and plated onto the proper plate.
HCMEC-D3 and HBMVEC cells were plated in 12-well plates and were grown until they reached 100% confluency. The media was replaced with fresh media containing 1 μM of Lexiscan® or NECA with proper vehicle control (DMSO) for up to 72 hours. Cells were lysed by lysis buffer […] containing protease inhibitor cocktail and stored for later use (−70° C.). For cytoskeletal fraction analysis, cells were lysed in CSK buffer (100 mM NaCl, 300 mM sucrose, 3 mM MgCl2, 10 mM PIPES, pH 6.8). For brain samples, half of the brain was homogenized and lysed with […] lysis buffer and centrifuged at 17,000 g for 20 minutes and 1:10 diluted samples were used for analysis. […] The intensity of band was analyzed with densitometric analysis and plotted as a graph for analysis of time-course effect of AR signaling on P-gp expression.

P-gp [2] = assay: Western blot of P-gp expression in primary human brain endothelial cells; assay type: cell-based; settings: 1 μM, up to 72 hours
Description: HCMEC-D3 and HBMVEC cells were plated in 12-well plates and were grown until they reached 100% confluency. The media was replaced with fresh media containing 1 μM of Lexiscan® or NECA with proper vehicle control (DMSO) for up to 72 hours. Cells were lysed by lysis buffer […] containing protease inhibitor cocktail and stored for later use (−70° C.). For cytoskeletal fraction analysis, cells were lysed in CSK buffer (100 mM NaCl, 300 mM sucrose, 3 mM MgCl2, 10 mM PIPES, pH 6.8). For brain samples, half of the brain was homogenized and lysed with […] lysis buffer and centrifuged at 17,000 g for 20 minutes and 1:10 diluted samples were used for analysis. Sample was loaded on 7% SDS PAGE at 100 V for 1 hour and transferred to the nitrocellulose paper. It was blocked with 1% BSA and incubated with anti-P-gp antibody (Genetex, 1:2000) overnight. Subsequently, it was washed with TBST and incubated with anti-rabbit secondary antibody (1:2000) for 1 hour. It was washed with TBST and developed with ECL substrate and exposed to x-ray film. Anti-GAPDH or −β-actin antibody was used as loading control. The intensity of band was analyzed with densitometric analysis and plotted as a graph for analysis of time-course effect of AR signaling on P-gp expression.

BCRP1/ABCG2 = assay: BCRP1 expression in brain of WT mice (western blot); assay type: in vivo, mouse
P-gp [3] = molecular target: T1, P-gp (Mus musculus, UniProt P21447); assay: Epirubicin brain accumulation assay; assay type: in vivo; settings: mice
T1 construct: down-modulation of P-gp expression and function in brain vascular endothelial cells in WT mice; from tissue; host or cells: brain of WT mice
T1 sequence (P21447 whole entry): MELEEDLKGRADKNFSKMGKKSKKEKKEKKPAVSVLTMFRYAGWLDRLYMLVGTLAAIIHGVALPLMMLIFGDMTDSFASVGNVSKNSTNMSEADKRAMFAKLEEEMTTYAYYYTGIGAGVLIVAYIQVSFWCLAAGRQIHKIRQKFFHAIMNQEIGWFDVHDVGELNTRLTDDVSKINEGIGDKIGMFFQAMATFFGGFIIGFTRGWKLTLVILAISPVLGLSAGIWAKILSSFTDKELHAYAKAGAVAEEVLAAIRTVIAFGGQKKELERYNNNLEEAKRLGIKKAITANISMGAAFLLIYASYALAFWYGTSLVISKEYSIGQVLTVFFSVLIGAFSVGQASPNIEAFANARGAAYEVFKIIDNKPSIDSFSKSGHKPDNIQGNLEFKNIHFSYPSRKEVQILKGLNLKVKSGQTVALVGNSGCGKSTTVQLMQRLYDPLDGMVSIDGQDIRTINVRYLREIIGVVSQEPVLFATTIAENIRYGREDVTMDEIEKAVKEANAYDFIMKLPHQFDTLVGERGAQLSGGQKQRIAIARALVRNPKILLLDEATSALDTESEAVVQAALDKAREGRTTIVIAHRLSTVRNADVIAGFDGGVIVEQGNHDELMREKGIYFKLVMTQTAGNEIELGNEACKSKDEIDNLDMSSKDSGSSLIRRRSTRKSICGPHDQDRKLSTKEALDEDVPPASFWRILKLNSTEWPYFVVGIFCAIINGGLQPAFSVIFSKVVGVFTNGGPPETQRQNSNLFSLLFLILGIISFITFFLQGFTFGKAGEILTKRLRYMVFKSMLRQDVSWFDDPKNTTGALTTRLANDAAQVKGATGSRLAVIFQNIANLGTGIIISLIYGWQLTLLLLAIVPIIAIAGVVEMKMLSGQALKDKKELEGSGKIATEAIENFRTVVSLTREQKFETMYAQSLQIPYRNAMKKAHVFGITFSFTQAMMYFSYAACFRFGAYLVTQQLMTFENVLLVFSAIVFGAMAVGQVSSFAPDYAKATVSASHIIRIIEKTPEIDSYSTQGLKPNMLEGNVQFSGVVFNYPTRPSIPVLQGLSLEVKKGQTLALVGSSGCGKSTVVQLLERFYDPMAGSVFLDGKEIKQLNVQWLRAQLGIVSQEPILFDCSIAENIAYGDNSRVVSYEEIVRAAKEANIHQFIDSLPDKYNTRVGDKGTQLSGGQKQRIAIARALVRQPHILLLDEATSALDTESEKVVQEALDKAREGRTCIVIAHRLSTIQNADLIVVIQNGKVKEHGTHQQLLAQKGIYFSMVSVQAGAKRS
Description: FIG. 12A is a fluorescence microscopy image showing immunofluorescence images of brains from Lexiscan®-treated mice of WT brain at 15 and 30 minutes after Lexiscan® treatment. Frozen brain sections were stained with GLUT1 (red), or P-gp (green) and counterstained with DAPI (blue). FIG. 12B is a fluorescence microscopy image showing an enlarged image of FIG. 12A. FIG. 12C is a graph summarizing the experimental results of a brain epirubicin accumulation assay in the Lexiscan®- and vehicle-treated (control) mice. Briefly, 10 mg/kg of epirubicin was injected intravenously with or without 0.05 mg/kg of Lexiscan®. Mice were perfused with ice-cold PBS and sacrificed at different time points. The accumulation of epirubicin in the brain was measured using fluorometric excitation at 488 nm and emission at 590 nm. *P<0.05 (n=4, 2-tailed Student's t test). FIG. 12D are fluorescence microscopy images showing fluorescent microscopic analysis of epirubicin accumulation in the brains of mice treated with Lexiscan® or PSC833 (a functional P-gp inhibitor) compared with vehicle (control). 10 mg/kg of epirubicin was injected intravenously with or without 0.05 mg/kg of Lexiscan® or 50 mg/kg of PSC833 for 15 minutes. Mice were perfused with ice-cold PBS and sacrificed. Brain was sectioned for microscopic analysis for full-brain image, and focal zoomed image from cortex was laid as an inset. Epirubicin is in red, and nucleus was counterstained with DAPI (blue). FIG. 12E are graphs showing the quantified intensity of epirubicin from different regions of cortex (CTX), cerebellum (CRBL), and hippocampus (HPC) from brains of control, Lexiscan®-, or PSC833-injected animals and depicted as graphs. The scale bars indicate 100 μm in FIG. 12A; 50 μm in FIG. 12B, and 5 mm in FIG. 12D). ***P<0.001 (n=50, 2-tailed Student's t test).
FIG. 14A is a western blot of P-gp and BCRP1 from mouse brain at 2 and 18 hours after NECA treatment. FIG. 14B are graphs showing the enumeration of the expression intensity of P-gp and BCRP1 from the western blots shown in FIG. 14A. The intensity of the bands from NECA treatment group was divided by that of DMSO control. […] For fluorescence microscopy, frozen brain sections were stained with GLUT1 (red) or P-gp (green) and counterstained with DAPI (blue). […] The accumulation of epirubicin in the brain was measured using fluorometry, with excitation at 488 nm and emission at 590 nm. *P<0.05 (n=4, 2-tailed Student's t test).
For Lexiscan® study, 10 mg/kg of epirubicin was injected with or without Lexiscan® (0.05 mg/kg) at different time points, and mice were sacrificed. […] Samples were spun down at 17,000 g for 30 minutes, and the concentration for epirubicin was analyzed with fluorimetry with […].

Row | Compound | P-gp expression (western blot, normalized to GAPDH) (P-gp [1]) | P-gp expression (western blot, vs DMSO control) (P-gp [2]) | BCRP expression level in brain (BCRP1/ABCG2; 2 and 18 hours after NECA) | Epirubicin accumulation in the brain (fluorometry) (P-gp [3]; 0.08 mg/kg NECA i.v., then 10 mg/kg epirubicin i.v. for 15 minutes) | Time at which effect on BCRP occurred (BCRP1/ABCG2) [min] | BCRP expression in brain (BCRP1/ABCG2; Lexiscan® treatment, 5 to 60 minutes) | Epirubicin fluorescent intensity in brain sections (cortex, cerebellum, hippocampus) (P-gp [3]; 10 mg/kg epirubicin i.v. with 0.05 mg/kg Lexiscan® or 50 mg/kg PSC833 for 15 minutes) | Epirubicin accumulation in the brain (fluorometry) (P-gp [3]; 10 mg/kg epirubicin i.v. with 0.05 mg/kg Lexiscan®, different time points)
1 | CCNC(=O)[C@H]1O[C@@H](n2cnc3c(N)ncnc32)[C@H](O)[C@@H]1O [NECA, (2S,3S,4R,5R)-5-(6-aminopurin-9-yl)-N-ethyl-3,4-dihydroxyoxolane-2-carboxamide] | P-gp expression decreased very rapidly and remained down-modulated for up to 4 hours | began to decrease at 30 minutes and was maintained for up to 48 hours and recovered by 72 hours | not significantly affected | showed epirubicin accumulation in the brain that matched the kinetics of P-gp decrease |  |  |  | 
2 | CNC(=O)c1cnn(-c2nc(N)c3ncn([C@@H]4O[C@H](CO)[C@@H](O)[C@H]4O)c3n2)c1 [Lexiscan®, 1-[6-amino-9-[(2R,3R,4S,5R)-3,4-dihydroxy-5-(hydroxymethyl)oxolan-2-yl]purin-2-yl]-N-methylpyrazole-4-carboxamide] | rapid down-modulation of P-gp beginning at 30 minutes, which was maintained for up to 1 hour | rapid down-modulation of P-gp expression, which began to decrease at 15 minutes and was maintained at a decreased level for up to 4 hours |  |  | 15 | potently down-regulated BCRP expression by 15 minutes, after which its expression began to recover by 60 minutes | Significant epirubicin intensity in the cerebral cortex, the cerebellum, and the hippocampus | began to increase at 5 minutes; this was maintained up to 30 minutes and returned to baseline by 60 minutes
